This is an account of results in patent US20240300886A1, “ARYLCYCLOHEXYLAMINE DERIVATIVES AND THEIR USE IN THE TREATMENT OF PSYCHIATRIC DISORDERS” (GILGAMESH PHARMACEUTICALS, INC., priority 2021, published 2024).

Read-outs that look alike come from different tables or passages of the source.

In series [1] the target is MK-801 binding site of the N-methyl-D-aspartate receptor (NMDAR). Kind of series: NMDA receptor radioligand binding with [3H]MK-801. Also noted: species or system Wistar rat. The note with it: for Ki: [3H]MK-801 displacement, Wistar rat brain (minus cerebellum), read-out: NMDAR Ki (95% CI). Here is the method:
The binding affinities of disclosed compounds at the MK-801 binding site of the N-methyl-D-aspartate receptor (NMDAR) were determined in radioligand binding experiments (Table 13).
Radioligand Binding. Affinity of the test compounds for NMDAR was determined in radioligand binding experiments with [^3H]MK-801 by Eurofins Panlabs, Inc., using methods adapted from the literature (Javitt el al. 1987; Reynolds et al. 1989) and under the conditions described in Table 14.

For series [2], the target named is serotonin transporter (SERT) (Homo sapiens (Human), UniProt P31645). Kind of series: SERT fluorescent substrate uptake inhibition in transfected cells. To be noted: for inhibition at 10 µM: stably transfected cells expressing SERT; for ability to inhibit SERT uptake (in words): transfected cells, 10 μM. It is filed as cell-based. How it is done: The ability of disclosed compounds to inhibit uptake of monoamines by the serotonin transporter (SERT) was measured using a fluorescent substrate uptake assay in transfected cells (Table 15). […] Considering that inhibitors of SERT are well known to have antidepressant and anxiolytic effects and are among the most commonly prescribed drugs for mood disorders (e.g. fluoxetine, sertraline, etc.), blockade of SERT by certain compounds of the present disclosure is expected to synergize with their NMDAR inhibition to increase therapeutic activity for treating depression and related disorders. […] Further, the ability to tune the ratio between SERT and NMDAR is useful to obtain the optimal therapeutic profile depending on the intended clinical indication.
Uptake Inhibition. The ability of test compounds to block monoamine uptake by SERT was determined using the Neurotransmitter Transporter Uptake Assay Kit manufactured by Molecular Devices (Cat #R8173). Briefly, stably transfected cells expressing SERT were grown and plated into 384-well plates at a concentration of 20,000 cells per well. Plates were then incubated for 16-20 h at 37° C. and 5% CO2. The medium was then aspirated and replaced with 25 μL of assay buffer (20 mM HEPES in HBSS, containing 0.1% BSA) containing the test compounds at the appropriate concentrations. Plates were then centrifuged at 300 rpm for 15 s and then incubated at 37° C. for 30 minutes. At this time, 25 μL of the proprietary fluorescent dye solution was added, the plates were incubated at 37° C. for 60 minutes, and then fluorescence was quantified on a plate reader (excitation wavelength=440 nm, emission wavelength=520 nm). The proprietary dye solution contains a mixture of 1) a fluorescent dye that mimics the endogenous substrate of SERT and is thereby actively transported to the intracellular compartment in the absence of an inhibitor and 2) a masking dye that inhibits the fluorescence of dye 1 in the extracellular compartment. Therefore, the overall fluorescence of the system increases as the fluorescent dye is transported into the cells.

A short description of series [3]: Oral bioavailability in rats, Method B (plasma and brain PK). It is filed as in vivo, Sprague Dawley rats. The note with it: for half-life / Cmax / AUC(0-inf): male, Sprague Dawley; for half-life / Cmax / AUC(0-inf) / AUC0-inf (iv) / AUC0-inf (po) / F: Method B; for AUC(0-inf) / AUC0-inf (iv) / AUC0-inf (po): values represent AUC0-last; for F: 1 mg/kg. How it is done:
Animals. Male Sprague Dawley rats were used in these studies. Animals were randomly assigned to treatment groups and were fasted for 4 h before dosing.
Drugs. Test compounds were dissolved in a vehicle consisting of normal saline (for compounds used as the HCl salt) or normal saline slightly acidified with aq. HCl (for freebase compounds). They were then administered intravenously (iv) or orally (po) at a dose of […] (calculated based on freebase), as indicated, and at a volume of 5 mL/kg body weight. Compounds were tested as the racemates or pure enantiomers, as indicated.
Sample Collection and Bioanalysis. Blood samples (approximately 60 μL) were collected under light isoflurane anesthesia (Surgivet®) from the retro orbital plexus at 0.08, 0.25, 0.5, 1, 2, 4, 8, and 24 h (4 animals per time point). Immediately after blood collection, plasma was harvested by centrifugation at 4,000 rpm for 10 min at 4° C. and samples were stored at −70±10° C. until bioanalysis. Following blood collection, animals were immediately sacrificed, the abdominal vena-cava was cut open, and the whole body was perfused from the heart using 10 mL of normal saline, and brain samples were collected from all animals. After isolation, brain samples were rinsed three times in ice-cold normal saline (for 5-10 seconds/rinse using ˜-5-10 mL normal saline in disposable petri dish for each rinse) and dried on blotting paper. Brain samples were homogenized using ice-cold phosphate-buffered saline (pH 7.4). Total homogenate volume was three times the tissue weight. All homogenates were stored at −70±10° C. until bioanalysis. For bioanalysis, 25 μL aliquots of plasma/brain study samples or spiked plasma/brain calibration standards were added to individual pre-labeled micro-centrifuge tubes followed by 100 μL of an internal standard solution (glipizide, 500 ng/mL in acetonitrile) except for blanks, where 100 μL of acetonitrile was added. Samples were vortexed for 5 minutes and then centrifuged for 10 minutes at 4,000 rpm at 4° C. Following centrifugation, 100 μL of each clear supernatant was transferred to a 96 well plate and analyzed with a fit-for-purpose LC-MS/MS method, with authentic samples of each analyte used for calibration and identification.
Data Analysis. Pharmacokinetic parameters were estimated using the non-compartmental analysis tool of Phoenix® WinNonlin software (Ver 8.0).

Where [4] appears, read: rat brain, 1 mg/kg iv, read-out: t1/2 (iv).
[5] abbreviates: rat brain, 1 mg/kg po, read-out: t1/2 (po).
Setting [6] is: rat plasma, 1 mg/kg iv, read-out: t1/2 (iv).
[7] abbreviates: rat plasma, 1 mg/kg iv, read-out: AUC0-inf (iv) (converted).
Where [8] appears, read: rat plasma, 1 mg/kg po, read-out: t1/2 (po).
Where [9] appears, read: rat plasma, 1 mg/kg po, read-out: AUC0-inf (po) (converted).
The mark [10] stands for this setting: rat brain, calculated based on brain exposure (AUC0-last).

As to `N[C@]1(c2cccc(F)c2)CCCCC1=O` [Compound 3S], the inhibition constant (Ki) in series [1] is 1700 nM. In series [2], the inhibition at 10 µM was -0.21% and the “ability to inhibit SERT uptake (in words)” value was “inactive”.
With `N[C@]1(c2ccc(F)cc2)CCCCC1=O` [Compound 1S, (S)-2-amino-2-(4-fluorophenyl)cyclohexan-1-one], the half-life in series [3] (setting [4]) was 4.09 h; in series [3] (setting [5]), 7.11 h; in series [3] (setting [6]) it was 2.58 h; in series [3] (setting [8]), 3.88 h. Further, the Cmax in series [3] (rat brain, 1 mg/kg po) came to 167 ng/g; in series [3] (rat plasma, 1 mg/kg po) it was 234 ng/mL. Also, the AUC(0-inf) is 805 ng·h/mL in series [3] (setting [7]) and 1140 ng·h/mL in series [3] (setting [9]). In series [3] (rat brain, 1 mg/kg iv), the “AUC0-inf (iv)” value was 126462 ng·min/g. For the same molecule, the “AUC0-inf (po)” value in series [3] (rat brain, 1 mg/kg po) was found to be 79272.6 ng·min/g. For the same molecule, the F is reported as 62.7% in series [3] (setting [10]) and greater than 100% in series [3] (rat plasma, based on AUC0-last). For the same molecule, the inhibition constant Ki in series [1] came out at 1700 nM. The inhibition at 10 µM in series [2] came to 14.9%.
On to `CN[C@]1(c2ccc(F)cc2)CCCCC1=O` [Compound 2S, (S)-2-(4-fluorophenyl)-2-(methylamino)cyclohexan-1-one], for which the half-life in series [3] (setting [4]) is 0.7 h; in series [3] (setting [6]), 0.7 h; in series [3] (setting [8]), 1.46 h. The maximum concentration (Cmax) in series [3] (rat brain, 1 mg/kg po) came to 47.6 ng/g; in series [3] (rat plasma, 1 mg/kg po), 32.3 ng/mL. Also, the AUC(0-inf) in series [3] (setting [7]) is 186 ng·h/mL; in series [3] (setting [9]) it was 37.8 ng·h/mL. Besides, the “AUC0-inf (iv)” value in series [3] (rat brain, 1 mg/kg iv) is 68000.4 ng·min/g. Besides, in series [3] (rat brain, 1 mg/kg po), the “AUC0-inf (po)” value was determined as 3067.2 ng·min/g. Besides, the F in series [3] (setting [10]) was 4.5%; in series [3] (rat plasma, based on AUC0-last), 20%. Besides, in series [1], the Ki was determined as 1200 nM. Also, in series [2], the inhibition at 10 µM came to 36.4%.
As to `CN[C@@]1(c2ccc(F)cc2)CCCCC1=O` [Compound 2R, (R)-2-(4-fluorophenyl)-2(methylamino)cyclohexan-1-one], the half-life in series [3] (setting [4]) was determined as 0.0633 h; in series [3] (setting [5]) it was 0.99 h; in series [3] (setting [6]), 2.77 h; in series [3] (setting [8]), 1.58 h. Also, the Cmax in series [3] (rat brain, 1 mg/kg po) is 42.8 ng/g; in series [3] (rat plasma, 1 mg/kg po), 17.7 ng/mL. Further, the AUC(0-inf) in series [3] (setting [7]) is 163 ng·h/mL; in series [3] (setting [9]) it was 50.3 ng·h/mL. Besides, the “AUC0-inf (iv)” value in series [3] (rat brain, 1 mg/kg iv) worked out at 27152.4 ng·min/g. In addition, the “AUC0-inf (po)” value in series [3] (rat brain, 1 mg/kg po) is 4915.8 ng·min/g. The F in series [3] (setting [10]) is recorded as 18.1%; in series [3] (rat plasma, based on AUC0-last), 31%. In series [3] (rats), the “brain exposure after oral administration compared to enantiomer 2S” value is reported as “substantially higher brain exposure”. Further, in series [1] (MK-801 site of NMDAR), the “NMDAR binding potency relative to enantiomer 2S (less potent)” value was roughly 3 fold. For the same molecule, in series [1], the Ki came to 3300 nM. Moreover, in series [2], the inhibition at 10 µM stood at 58.8%. Moreover, the “ability to inhibit SERT uptake (in words)” value in series [2] is “substantial inhibitor, activity in the micromolar range”.
Take `N[C@@]1(c2ccc(F)cc2)CCCCC1=O` [Compound 1R, (R)-2-amino-2-(4-fluorophenyl)cyclohexan-1-one]: in series [2], the inhibition at 10 µM stood at 10.4%.

The Ki is the equilibrium dissociation constant of an inhibitor or competing ligand from its target. As a reminder, the inhibition is the relative decrease from the control value, in per cent. The term Cmax denotes the peak of the concentration-time curve.
